# Like-named read-outs stand apart in the source and are kept apart here.
# T1: aminopeptidase M (Sus scrofa, UniProt P15145)
# T1 sequence (P15145 1-963): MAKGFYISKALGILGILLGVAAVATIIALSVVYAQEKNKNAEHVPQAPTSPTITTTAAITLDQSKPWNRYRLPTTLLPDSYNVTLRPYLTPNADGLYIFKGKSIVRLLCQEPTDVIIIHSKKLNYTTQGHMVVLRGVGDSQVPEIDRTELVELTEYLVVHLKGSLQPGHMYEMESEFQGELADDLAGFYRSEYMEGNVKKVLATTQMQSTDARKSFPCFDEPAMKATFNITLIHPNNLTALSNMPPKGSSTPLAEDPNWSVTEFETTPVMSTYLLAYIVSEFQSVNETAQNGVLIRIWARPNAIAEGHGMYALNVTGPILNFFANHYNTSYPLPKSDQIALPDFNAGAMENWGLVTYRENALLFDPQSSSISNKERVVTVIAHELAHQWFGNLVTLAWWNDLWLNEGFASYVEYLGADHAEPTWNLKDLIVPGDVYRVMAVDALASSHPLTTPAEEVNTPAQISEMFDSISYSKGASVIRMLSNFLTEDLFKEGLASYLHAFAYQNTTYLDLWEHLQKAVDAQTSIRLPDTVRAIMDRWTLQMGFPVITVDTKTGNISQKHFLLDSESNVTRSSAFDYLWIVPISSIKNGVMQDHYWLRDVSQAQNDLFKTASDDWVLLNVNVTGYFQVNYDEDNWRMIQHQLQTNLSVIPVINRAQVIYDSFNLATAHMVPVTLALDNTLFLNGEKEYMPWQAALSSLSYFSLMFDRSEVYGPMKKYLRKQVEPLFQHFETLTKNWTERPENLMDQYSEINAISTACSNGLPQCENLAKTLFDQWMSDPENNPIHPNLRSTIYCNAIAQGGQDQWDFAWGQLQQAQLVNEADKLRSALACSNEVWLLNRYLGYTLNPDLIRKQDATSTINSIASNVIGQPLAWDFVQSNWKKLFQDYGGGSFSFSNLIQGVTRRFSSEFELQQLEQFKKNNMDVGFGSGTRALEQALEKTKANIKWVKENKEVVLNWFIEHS
# T2: LTA4 hydrolase (Homo sapiens, UniProt P09960)
# T2 sequence (P09960 1-611): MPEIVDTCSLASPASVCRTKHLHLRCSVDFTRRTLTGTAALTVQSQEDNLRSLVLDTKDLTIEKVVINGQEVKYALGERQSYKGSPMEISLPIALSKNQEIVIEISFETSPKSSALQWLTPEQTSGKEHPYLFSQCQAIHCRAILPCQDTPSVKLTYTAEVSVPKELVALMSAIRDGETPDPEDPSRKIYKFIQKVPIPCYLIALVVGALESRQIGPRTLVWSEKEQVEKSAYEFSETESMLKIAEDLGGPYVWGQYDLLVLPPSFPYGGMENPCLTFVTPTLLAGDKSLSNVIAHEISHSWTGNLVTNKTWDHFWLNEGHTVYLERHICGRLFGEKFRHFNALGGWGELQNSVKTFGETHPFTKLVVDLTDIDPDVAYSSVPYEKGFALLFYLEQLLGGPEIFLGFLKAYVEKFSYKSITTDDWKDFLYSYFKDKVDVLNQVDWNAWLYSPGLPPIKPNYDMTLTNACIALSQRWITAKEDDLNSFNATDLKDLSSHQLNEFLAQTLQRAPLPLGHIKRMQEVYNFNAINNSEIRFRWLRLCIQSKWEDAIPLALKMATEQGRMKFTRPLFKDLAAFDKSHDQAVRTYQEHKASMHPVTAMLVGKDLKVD
# T3: LTA4 hydrolase (epoxide hydrolase activity) (Homo sapiens, UniProt P09960)
# T3 construct: obtained from human leukocytes and was purified to apparent homogeneity; from tissue; host or cells: human leukocytes (purified to apparent homogeneity)
# T3 sequence (P09960 1-611): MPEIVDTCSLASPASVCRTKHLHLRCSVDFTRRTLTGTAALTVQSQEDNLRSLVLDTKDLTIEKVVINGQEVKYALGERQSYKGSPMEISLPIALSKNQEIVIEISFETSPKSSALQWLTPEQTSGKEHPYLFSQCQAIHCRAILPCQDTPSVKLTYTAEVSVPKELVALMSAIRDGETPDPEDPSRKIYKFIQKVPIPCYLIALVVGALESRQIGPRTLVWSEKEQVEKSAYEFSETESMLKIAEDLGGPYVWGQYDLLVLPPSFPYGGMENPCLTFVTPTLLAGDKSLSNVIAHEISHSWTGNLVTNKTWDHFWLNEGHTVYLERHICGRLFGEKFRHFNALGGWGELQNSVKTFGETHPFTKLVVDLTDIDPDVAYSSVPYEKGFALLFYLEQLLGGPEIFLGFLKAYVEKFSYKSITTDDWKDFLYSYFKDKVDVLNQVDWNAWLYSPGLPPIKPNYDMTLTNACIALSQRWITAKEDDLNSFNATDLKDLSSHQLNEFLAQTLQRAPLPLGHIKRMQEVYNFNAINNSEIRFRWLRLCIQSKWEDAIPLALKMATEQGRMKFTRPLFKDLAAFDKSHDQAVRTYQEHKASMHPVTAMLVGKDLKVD
# Key:
# Thromboxane B2 (TXB2) = assay: Inhibition of thromboxane B2 (TXB2) in calcium ionophore A-23187-stimulated human blood; format: cell-based
# Experimental: (§4) Blood was drawn from a human volunteer, and a compound solution at one of three concentrations (Table 3) or a single concentration (Table 4), or solution alone (vehicle) was added to a one ml aliquot of the blood. After incubation for 15 minutes, 14 μg of calcium ionophore A-23187 (as the free acid) was added, and the incubation continued for another 15 minutes. The reactions were stopped by immersion of the containers into slush ice, and the samples were centrifuged at 11,000 ×g to pellet red cells and leukocytes. An aliquot of the plasma was then assayed for the presence of thromboxane B2 or leukotriene B4 by standard radioimmunoassay techniques.
# 15-lipoxygenase = assay: Inhibition of 15-lipoxygenase in A-23187-stimulated PMNL with exogenous arachidonic acid; format: cell-based
# Text: (§1) Compounds 24 and 27 were also studied for their abilities to inhibit 5- and 15-lipoxygenase using calcium ionophore A-23187-stimulated polymorphonuclear leukocytes (PMNL) in the presence of exogenous arachidonic acid. […] LTC4 Synthase activity in human platelets was also not inhibited.
# aminopeptidase M = biological target: T1, aminopeptidase M; assay: Inhibition of aminopeptidase M; format: biochemical
# LTC4 Synthase = assay: Inhibition of LTC4 synthase activity in human platelets; format: cell-based
# Text: as §1
# [1] = biological target: cytosolic leucine aminopeptidase; assay: Inhibition of cytosolic leucine aminopeptidase; format: biochemical
# Leukotriene B4 (LTB4) = assay: Inhibition of leukotriene B4 (LTB4) in calcium ionophore A-23187-stimulated human blood; format: cell-based
# Experimental: as §4
# [2] = system: LTB4 Formation in intact PMNL; assay: LTB4 formation in calcium ionophore A-23187-stimulated intact PMNL; format: cell-based; conditions: for IC50: Homo sapiens, PMNL, calcium ionophore A-23187-stimulated, dose dependent
# LTA4 hydrolase [3] = biological target: T2, LTA4 hydrolase; assay: Inhibition of LTA4 hydrolase, amidase (aminopeptidase) activity, L-alanyl p-nitroanilide as substrate; format: biochemical; set-up: LTA4 hydrolase purified from human leukocytes; from tissue; host or cells: human leukocytes (purified enzyme)
# Experimental: ^a All assays were performed in TrisHCl buffer (0.05 M, pH 8.0) with
# Lalanyl pnitroanilide (1.5 mM) as substrate unless otherwise indicated.
# for each assay (final volume = 1.0 mL). pNitroaniline formation was
# monitored spectrophotometrically at 405 nm. Thiol compounds were assayed
# in the presence of 5 mM DTT. The values shown are within ± 5 percent
# accuracy. Dixon plot was used to determine the Ki values.
# [4] = biological target: T3, LTA4 hydrolase (epoxide hydrolase activity); assay: Inhibition of epoxide hydrolase activity of LTA4 hydrolase, LTA4 as substrate; format: biochemical; conditions: Table 5; read-out: IC50 Epoxide Hydrolase
# Experimental: Aliquots of enzyme (2.5 mg) were preincubated for 30-40 minutes at room temperature in 100 mL of 50 mM HEPES, pH 8, containing various amounts of the respective inhibitor. […] After addition of 200 ng PGB1 (internal standard), samples were acidified to pH value of 3 with 0.1M HCl, extracted on Chromabond C18 columns (Mackerey & Nagel), and finally analyzed on a computerized Waters HPLC system. The column (Radial-Pak C18 cartridge, 100×5 mm, Waters) was eluted with a mixture of methanol/water/acetic acid (70:30:0.01, v/v) at a flow rate of 1.2 mL/minutes. The UV absorbance of the eluate was monitored continuously at 270 nm. Amounts of LTB4 were computer calculated from peak area ratios between LTB4 and the internal standard PGB1. Peak area ratios were converted into molar ratios from comparisons with standard curve constructed from injections of known amounts of the respective compound.
# LTA4 hydrolase [5] = biological target: T2, LTA4 hydrolase; assay: Kinetic parameters of LTA4 hydrolase-catalyzed hydrolysis of LTA4 and amide substrates; format: biochemical; conditions: Table 1; 50 mM TrisCl, pH 7.6, 0.1 M NaCl
# Experimental: (§2) Several amino acid amides were assayed as substrates for LTA4 hydrolase. Yuan et al., Bioorg. & Med. Chem. Lett., 1:551 (1991).
# (§3) ^a Determined in 50 mM TrisCl, pH 7.6, in the presence of 0.1 M NaCl, […]
# LTA4 hydrolase [6] = biological target: T2, LTA4 hydrolase; conditions: literature; cited from earlier work
# LTA4 hydrolase [7] = biological target: T2, LTA4 hydrolase; conditions: LTA4 as substrate, Radmark et al., cited from earlier work
# 5-lipoxygenase = conditions: read-out: IC50, 5-lipoxygenase production of 5-HETE; cited from earlier work
# cyclooxygenase = conditions: read-out: IC50, cyclooxygenase production of PGD2; cited from earlier work
# [8] = substrate: N=C(N)NCCC[C@H](N)C(=O)Nc1ccc([N+](=O)[O-])cc1; assay: purified protein, by the assay type; conditions: other: Table 1, 50 mM TrisCl, pH 7.6, 0.1 M NaCl
# [9] = substrate: CC(C)C[C@H](N)C(=O)Nc1ccc([N+](=O)[O-])cc1; assay: Kinetic parameters of LTA4 hydrolase-catalyzed hydrolysis of LTA4 and amide substrates; format: biochemical; conditions: other: Table 1, 50 mM TrisCl, pH 7.6, 0.1 M NaCl
# Experimental: as §2, §3
# [10] = substrate: C[C@H](N)C(=O)Nc1ccc([N+](=O)[O-])cc1; assay: as above; format: biochemical; conditions: other: Table 1, 50 mM TrisCl, pH 7.6, 0.1 M NaCl
# Experimental: as §2, §3
# [11] = substrate: NCCCC[C@H](N)C(=O)Nc1ccc([N+](=O)[O-])cc1; assay: as above; format: biochemical; conditions: other: Table 1, 50 mM TrisCl, pH 7.6, 0.1 M NaCl
# Experimental: as §2, §3
# [12] = substrate: CCCCC/C=C\C\C=C/C=C/C=C/[C@@H]1O[C@H]1CCCC(=O)O; assay: as above; format: biochemical; conditions: other: Table 1, 50 mM TrisCl, pH 7.6, 0.1 M NaCl
# Experimental: as §2, §3
# [13] = substrate: O=C(Nc1ccc([N+](=O)[O-])cc1)[C@@H]1CCCN1; assay: as above; format: biochemical; conditions: other: Table 1, 50 mM TrisCl, pH 7.6, 0.1 M NaCl
# Experimental: as §2, §3
# [14] = read-out: % Inhibition TXB2, Table 4, 10 μM
# [15] = Homo sapiens, read-out: % Inhibition LTB4, Table 3
# [16] = Homo sapiens, read-out: % Inhibition LTB4, Table 4
# [17] = Homo sapiens, Table 3, read-out: % Inhibition LTB4
molecule,measurement,setting,value
N[C@@H](Cc1ccc(OCc2ccccc2)cc1)[C@H](O)C(=O)OCc1ccccc1 [Compound 24],inhibition at 1 µM,"Thromboxane B2 (TXB2); read-out: % Inhibition TXB2, Table 3, 1 μM",0%
same,inhibition at 3 µM,"Thromboxane B2 (TXB2); read-out: % Inhibition TXB2, Table 3, 3 μM",17%
same,inhibition at 10 µM,"Thromboxane B2 (TXB2); read-out: % Inhibition TXB2, Table 3, 10 μM",4%
same,inhibition at 10 µM,Thromboxane B2 (TXB2); [14],0%
same,inhibition of 15-lipoxygenase activity (in words),15-lipoxygenase,No inhibition
same,IC50,aminopeptidase M,> 100 µM
same,inhibition of LTC4 synthase activity (in words),LTC4 Synthase,not inhibited
same,IC50,[1],80 µM
same,inhibition at 1 µM,Leukotriene B4 (LTB4); [15],7%
same,inhibition at 3 µM,Leukotriene B4 (LTB4); [15],44%
same,inhibition at 10 µM,Leukotriene B4 (LTB4); [15],39%
same,inhibition at 10 µM,Leukotriene B4 (LTB4); [16],18%
same,IC50,[2],0.1 to 0.2 µM
same,activity in intact PMNL compared with isolated enzyme (in words),[2]; intact PMNL versus isolated enzyme,unexpectedly much more active in this assay using intact PMNL than in assays with the isolated enzyme
COC(=O)C(=O)[C@@H](N)Cc1ccc(OCc2ccccc2)cc1 [Compound 25],tightness of binding to the enzyme relative to Compound 23,LTA4 hydrolase [3]; Compound 25 versus Compound 23,30 times
same,IC50,"LTA4 hydrolase [3]; L-alanyl p-nitroanilide 1.5 mM, pH 8.0, thiols with 5 mM DTT",0.6 µM
same,selectivity for LTA4 binding (in words),LTA4 hydrolase [3]; versus other aminopeptidases,selective for LTA4 binding
same,inhibition at 1 µM,"Thromboxane B2 (TXB2); Table 3, 1 μM, read-out: % Inhibition TXB2",25%
same,inhibition at 3 µM,"Thromboxane B2 (TXB2); Table 3, 3 μM, read-out: % Inhibition TXB2",20%
same,inhibition at 10 µM,"Thromboxane B2 (TXB2); Table 3, 10 μM, read-out: % Inhibition TXB2",41%
same,IC50,aminopeptidase M,80 µM
same,inhibition at 1 µM,Leukotriene B4 (LTB4); [17],29%
same,inhibition at 3 µM,Leukotriene B4 (LTB4); [17],59%
same,inhibition at 10 µM,Leukotriene B4 (LTB4); [17],39%
same,IC50,[4],100 µM
"Cl.N[C@H](CS)Cc1ccc(OCc2ccccc2)cc1 [Compound 27, (2S)-3-[4-(benzyloxy)phenyl]-2-amino-propanethiol HCl]",inhibition at 10 µM,Thromboxane B2 (TXB2); [14],100%
same,inhibition of 15-lipoxygenase activity (in words),15-lipoxygenase,No inhibition
same,inhibition of LTC4 synthase activity (in words),LTC4 Synthase,not inhibited
same,IC50,[1],> 50 µM
same,inhibition at 10 µM,Leukotriene B4 (LTB4); [16],100%
same,IC50,"Leukotriene B4 (LTB4); Homo sapiens, read-out: IC50 in this assay (human blood)",~1.1 µM
same,IC50,[2],0.1 to 0.2 µM
"CCCCC/C=C\C\C=C/C=C/C=C/[C@@H]1O[C@H]1CCCC(=O)O [LTA4, 5(S)-5,6-oxido-7,9-trans-11,14-cis-eicosatetraenoic acid]",kcat /Km,LTA4 hydrolase [5],9.0 × 10^4 M^- x^-1
same,"inhibition of LTA4 hydrolase, type of inhibition (in words)",LTA4 hydrolase [6],irreversibly inhibited
same,Vmax reported for native LTA4 hydrolase,LTA4 hydrolase [7],1.7 to 3.0 µmol/min/mg
same,Km,"LTA4 hydrolase [7]; native LTA4 hydrolase, read-out: Km reported for native LTA4 hydrolase",7 to 30 µM
COc1ccc(-n2nc(CCC(=O)N(C)O)cc2-c2ccc(Cl)cc2)cc1 [Tepoxalin],IC50,5-lipoxygenase,1.29 µM
same,IC50,cyclooxygenase,0.2 µM
same,potency in the blood eicosanoid assay (in words),Leukotriene B4 (LTB4); Table 3 assay system,more potent than any compound in this table
LTA4 hydrolase (Homo sapiens) (protein) MPEIVDTCSLASPASVCRTKHLHLRCSVDFTRRTLTGTAALTVQSQEDNLRSLVLDTKDLTIEKVVINGQEVKYALGERQSYKGSPMEISLPIALSKNQEIVIEISFETSPKSSALQWLTPEQTSGKEHPYLFSQCQAIHCRAILPCQDTPSVKLTYTAEVSVPKELVALMSAIRDGETPDPEDPSRKIYKFIQKVPIPCYLIALVVGALESRQIGPRTLVWSEKEQVEKSAYEFSETESMLKIAEDLGGPYVWGQYDLLVLPPSFPYGGMENPCLTFVTPTLLAGDKSLSNVIAHEISHSWTGNLVTNKTWDHFWLNEGHTVYLERHICGRLFGEKFRHFNALGGWGELQNSVKTFGETHPFTKLVVDLTDIDPDVAYSSVPYEKGFALLFYLEQLLGGPEIFLGFLKAYVEKFSYKSITTDDWKDFLYSYFKDKVDVLNQVDWNAWLYSPGLPPIKPNYDMTLTNACIALSQRWITAKEDDLNSFNATDLKDLSSHQLNEFLAQTLQRAPLPLGHIKRMQEVYNFNAINNSEIRFRWLRLCIQSKWEDAIPLALKMATEQGRMKFTRPLFKDLAAFDKSHDQAVRTYQEHKASMHPVTAMLVGKDLKVD,Km,[8],200 µM
same,Vmax,[8],135 nmol/min/mg
same,Km,[9],300 µM
same,Vmax,[9],135 nmol/min/mg
same,Km,[10],500 µM
same,Vmax,[10],530 nmol/min/mg
same,Km,[11],100 µM
same,Vmax,[11],30 nmol/min/mg
same,Km,[12],7.6 µM
same,Km,[13],100 µM
same,Vmax,[13],135 nmol/min/mg
